Counter-ions that a name gives are not always drawn. Like-named read-outs stand apart in the source and are kept apart here. Bounds are passed on as bounds.

The results in this text go back to patent publication US10981905B2, “Heteroaryl-substituted sulfonamide compounds and their use as therapeutic agents” (Xenon Pharmaceuticals Inc., priority 2018, dated 2021).

For one series, the target named is Nav1.1 (Homo sapiens (Human), UniProt P35498). The experiment in a line: Sodium Influx Assay (Flux), Nav1.1. The format is cell-based. The settings on record: Trex HEK293 cells, ANG2 dye, inactivated state.
The next series concerns the target Nav1.6 (Homo sapiens (Human), UniProt Q9UQD0). The experiment in a line: Sodium Influx Assay (Flux), Nav1.6. The format is cell-based. The settings on record: Trex HEK293 cells, ANG2 dye, inactivated state.
In the next series the target is Nav1.5 (Homo sapiens (Human), UniProt Q14524). The experiment in a line: Sodium Influx Assay (Flux), Nav1.5.
[1] abbreviates: read-out: Flux NaV1.5 IC50, sodium influx assay, Trex HEK293 cells, ANG2 dye, inactivated state.

Chain of Nav1.5 (Q14524 other isoform, or with tags, fused parts or gaps): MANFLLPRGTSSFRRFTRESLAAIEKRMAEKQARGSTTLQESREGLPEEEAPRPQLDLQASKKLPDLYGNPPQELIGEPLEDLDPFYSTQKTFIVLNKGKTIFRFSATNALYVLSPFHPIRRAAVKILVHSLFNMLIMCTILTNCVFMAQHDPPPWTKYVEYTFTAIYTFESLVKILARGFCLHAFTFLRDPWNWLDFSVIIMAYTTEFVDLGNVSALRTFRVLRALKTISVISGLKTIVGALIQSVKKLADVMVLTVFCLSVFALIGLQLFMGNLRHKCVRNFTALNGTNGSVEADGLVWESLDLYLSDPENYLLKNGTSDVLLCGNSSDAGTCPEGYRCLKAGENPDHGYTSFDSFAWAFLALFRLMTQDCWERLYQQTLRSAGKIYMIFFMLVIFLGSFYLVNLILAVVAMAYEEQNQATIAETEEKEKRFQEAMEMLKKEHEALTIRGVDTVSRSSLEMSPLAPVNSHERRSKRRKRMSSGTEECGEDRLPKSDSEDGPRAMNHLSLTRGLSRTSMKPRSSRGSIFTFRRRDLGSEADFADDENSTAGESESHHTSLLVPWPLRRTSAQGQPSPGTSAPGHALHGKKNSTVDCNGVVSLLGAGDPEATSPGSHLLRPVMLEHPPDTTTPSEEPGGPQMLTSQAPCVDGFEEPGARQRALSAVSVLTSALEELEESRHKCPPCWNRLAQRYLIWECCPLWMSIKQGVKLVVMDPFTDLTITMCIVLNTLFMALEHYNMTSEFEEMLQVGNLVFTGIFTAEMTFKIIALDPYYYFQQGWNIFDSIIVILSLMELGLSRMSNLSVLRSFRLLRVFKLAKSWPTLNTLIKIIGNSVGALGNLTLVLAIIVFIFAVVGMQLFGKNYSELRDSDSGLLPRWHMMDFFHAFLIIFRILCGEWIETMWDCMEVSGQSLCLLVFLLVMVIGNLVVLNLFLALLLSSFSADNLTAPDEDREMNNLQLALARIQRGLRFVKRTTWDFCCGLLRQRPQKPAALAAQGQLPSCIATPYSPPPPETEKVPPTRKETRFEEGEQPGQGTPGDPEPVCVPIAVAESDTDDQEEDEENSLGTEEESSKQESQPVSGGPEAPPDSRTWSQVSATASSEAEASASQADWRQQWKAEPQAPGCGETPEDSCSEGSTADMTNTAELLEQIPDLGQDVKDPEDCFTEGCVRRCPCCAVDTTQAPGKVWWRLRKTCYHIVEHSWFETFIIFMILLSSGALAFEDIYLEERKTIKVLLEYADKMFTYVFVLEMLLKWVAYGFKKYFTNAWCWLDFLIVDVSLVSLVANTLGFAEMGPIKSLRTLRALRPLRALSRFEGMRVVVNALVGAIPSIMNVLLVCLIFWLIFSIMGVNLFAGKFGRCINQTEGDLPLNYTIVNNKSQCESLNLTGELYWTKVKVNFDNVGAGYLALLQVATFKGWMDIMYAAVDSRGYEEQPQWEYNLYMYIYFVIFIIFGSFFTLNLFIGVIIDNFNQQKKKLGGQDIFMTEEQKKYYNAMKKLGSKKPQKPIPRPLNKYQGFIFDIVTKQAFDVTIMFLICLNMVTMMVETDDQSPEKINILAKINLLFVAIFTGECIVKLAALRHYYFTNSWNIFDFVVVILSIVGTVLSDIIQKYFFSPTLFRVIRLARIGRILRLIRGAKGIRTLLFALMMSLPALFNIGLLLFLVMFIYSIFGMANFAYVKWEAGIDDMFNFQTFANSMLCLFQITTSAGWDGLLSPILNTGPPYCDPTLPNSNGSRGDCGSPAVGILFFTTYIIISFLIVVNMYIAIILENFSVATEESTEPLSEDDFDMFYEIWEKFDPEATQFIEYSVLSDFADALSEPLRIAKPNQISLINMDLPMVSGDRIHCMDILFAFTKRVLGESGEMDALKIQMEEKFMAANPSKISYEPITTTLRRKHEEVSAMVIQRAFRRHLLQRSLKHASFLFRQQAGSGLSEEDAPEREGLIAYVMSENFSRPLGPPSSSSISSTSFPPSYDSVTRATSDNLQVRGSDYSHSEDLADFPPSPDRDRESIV

Turning to `Cc1nc(S(=O)(=O)Nc2cccc(F)n2)c(F)cc1NCc1ccccc1CN(C)C(C)(C)C` [Example 32, 5-((2-((tert-butyl(methyl)amino)methyl)benzyl)amino)-3-fluoro-N-(6-fluoropyridin-2-yl)-6-methylpyridine-2-sulfonamide trifluoroacetic acid salt], the figures for the IC50 on Nav1.1, against Nav1.6 and on Nav1.5 (setting [1]) were 16.7 µM, 272 nM and 30 µM, respectively.
The like results for `Cc1nc(S(=O)(=O)Nc2cscn2)ccc1NCc1cccc(F)c1CN1CCC1` [Example 27, 5-((2-(azetidin-1-ylmethyl)-3-fluorobenzyl)amino)-6-methyl-N-(thiazol-4-yl)pyridine-2-sulfonamide trifluoroacetic acid salt] were, in that order, 30 µM, 296 nM and 30 µM.
As to `Cc1nc(S(=O)(=O)Nc2cscn2)ccc1NCc1cccc2ccncc12` [Example 16, 5-((isoquinolin-8-ylmethyl)amino)-6-methyl-N-(thiazol-4-yl)pyridine-2-sulfonamide formic acid salt], the IC50 (as a rule, the midpoint of a concentration-inhibition curve) amounted to 30 µM against Nav1.1, 1270 nM at Nav1.6 and 30 µM on Nav1.5 (setting [1]).
Regarding `Cc1nc(S(=O)(=O)Nc2cscn2)c(F)cc1NCc1ccccc1CN(C)C(C)(C)C` [Example 34, 5-((2-((tert-butyl(methyl)amino)methyl)benzyl)amino)-3-fluoro-6-methyl-N-(thiazol-4-yl)pyridine-2-sulfonamide formic acid salt], the IC50 on Nav1.1 is at least 30 µM; against Nav1.6, 37 nM; on Nav1.5 it was at least 30 µM.
In the case of `Cc1nc(S(=O)(=O)Nc2cscn2)ccc1N[C@@H](C)c1ccccc1F` [Example 3, (S)-5-((1-(2-fluorophenyl)ethyl)amino)-6-methyl-N-(thiazol-4-yl)pyridine-2-sulfonamide], the IC50 at Nav1.1 was found to be 30 µM; against Nav1.6 it was 4740 nM; on Nav1.5 (setting [1]), 30 µM.
Consider `C[C@H](Nc1ncc(S(=O)(=O)Nc2cscn2)cc1Cl)c1cc(Cl)ccc1F` [Example 1, (S)-5-chloro-6-((1-(5-chloro-2-fluorophenyl)ethyl)amino)-N-(thiazol-4-yl)pyridine-3-sulfonamide], for which the figures for the IC50 on Nav1.1, on Nav1.6 and on Nav1.5 (setting [1]) were 5 µM, 2820 nM and 5.57 µM, respectively.
With `Cc1nc(S(=O)(=O)Nc2cscn2)c(F)cc1NCc1cccc(C(F)(F)F)c1CN1C2CCC1CC2` [Example 37, 5-((2-((7-azabicyclo[2.2.1]heptan-7-yl)methyl)-3-(trifluoromethyl)benzyl)amino)-3-fluoro-6-methyl-N-(thiazol-4-yl)pyridine-2-sulfonamide trifluoroacetic acid salt], the IC50 is 8.7 µM against Nav1.1, 5920 nM against Nav1.6 and at least 30 µM at Nav1.5.
For the molecule `Cc1nc(S(=O)(=O)Nc2cscn2)ccc1NCc1c(F)cccc1CN(C)CC1CC1` [Example 15, 5-((2-(((cyclopropylmethyl)(methyl)amino)methyl)-6-fluorobenzyl)amino)-6-methyl-N-(thiazol-4-yl)pyridine-2-sulfonamide formic acid salt], the IC50 against Nav1.1 is 30 µM; on Nav1.6, 286 nM; at Nav1.5 (setting [1]) it was 21.6 µM.
`O=S(=O)(Nc1cscn1)c1cc(C(F)(F)F)c(NCc2c(F)cccc2CN2CCC2)cn1` [Example 31, 5-((2-(azetidin-1-ylmethyl)-6-fluorobenzyl)amino)-N-(thiazol-4-yl)-4-(trifluoromethyl)pyridine-2-sulfonamide]: the IC50 against Nav1.1 came out at 30 µM; against Nav1.6, 1500 nM; at Nav1.5 (setting [1]) it was 30 µM.
In the case of `O=S(=O)(Nc1cscn1)c1cc(C(F)F)c(NCc2c(F)cccc2CN2CCCC2)cn1` [Example 17, 4-(difluoromethyl)-5-((2-fluoro-6-(pyrrolidin-1-ylmethyl)benzyl)amino)-N-(thiazol-4-yl)pyridine-2-sulfonamide formic acid salt], the figures for the IC50 against Nav1.1, against Nav1.6 and at Nav1.5 (setting [1]) were 30 µM, 1460 nM and 30 µM, respectively.
